{"source": "patent US20070009593A1", "about": "“Methods of treating cancer” (Indianan University Advanced Research, priority 2002, published 2007)", "key": {"A549": {"tested_on": "A549", "experiment": "MTT assay, NSCLC cell line", "assay_type": "cell-based", "conditions": "Homo sapiens"}, "H460": {"tested_on": "H460", "experiment": "MTT assay, NSCLC cell line", "assay_type": "cell-based", "conditions": "Homo sapiens"}, "MCF7": {"tested_on": "MCF7", "experiment": "MTT assay, breast cancer line", "assay_type": "cell-based", "conditions": "Homo sapiens, MCF7, read-out: Ritonavir IC50", "procedure": "(§1) The drugs were tested together at the ratio of their IC50 as single agents, over a 4-log range of concentrations. […] Viable cell number was measured by MTT assay."}, "MDA-231": {"tested_on": "MDA-231", "experiment": "MTT assay, breast cancer line", "assay_type": "cell-based", "conditions": "Homo sapiens", "procedure": "as §1"}, "MDA-436": {"tested_on": "MDA-436", "experiment": "MTT assay, breast cancer line", "assay_type": "cell-based", "conditions": "Homo sapiens, read-out: Ritonavir IC50; MDA-436 parental line", "procedure": "as §1"}, "SKBR-3": {"tested_on": "SKBR-3", "experiment": "MTT assay, breast cancer line", "assay_type": "cell-based", "conditions": "Homo sapiens, SK-BR-3, read-out: Ritonavir IC50", "procedure": "as §1"}, "T47D": {"tested_on": "T47D", "experiment": "MTT assay, breast cancer line", "assay_type": "cell-based", "conditions": "Homo sapiens, read-out: Ritonavir IC50", "procedure": "as §1"}, "[1]": {"tested_on": "MDA-436LXSN (vector control line)", "experiment": "MTT assay, breast cancer line", "assay_type": "cell-based", "conditions": "Homo sapiens, read-out: Ritonavir IC50"}, "[2]": {"tested_on": "Caco 2 2-3 (calpastatin over-expressing)", "experiment": "MTT assay, 96 well plate, 48 h", "assay_type": "cell-based", "conditions": "Homo sapiens, Caco-2, read-out: Ritonavir IC50, 2-3 line"}, "[3]": {"tested_on": "Caco 2 0.5-11 (calpastatin over-expressing)", "experiment": "MTT assay, 96 well plate, 48 h", "assay_type": "cell-based", "conditions": "Homo sapiens, Caco-2, read-out: Ritonavir IC50, 0.5-11 line (calpain activity reduction of 80%)"}, "m-calpain": {"biological_target": "T1, m-calpain (Homo sapiens, UniProt P17655)", "T1 construct": "endogenous in cells; host or cells: Caco 2A", "T1 sequence (P17655 20-700 limits assumed)": "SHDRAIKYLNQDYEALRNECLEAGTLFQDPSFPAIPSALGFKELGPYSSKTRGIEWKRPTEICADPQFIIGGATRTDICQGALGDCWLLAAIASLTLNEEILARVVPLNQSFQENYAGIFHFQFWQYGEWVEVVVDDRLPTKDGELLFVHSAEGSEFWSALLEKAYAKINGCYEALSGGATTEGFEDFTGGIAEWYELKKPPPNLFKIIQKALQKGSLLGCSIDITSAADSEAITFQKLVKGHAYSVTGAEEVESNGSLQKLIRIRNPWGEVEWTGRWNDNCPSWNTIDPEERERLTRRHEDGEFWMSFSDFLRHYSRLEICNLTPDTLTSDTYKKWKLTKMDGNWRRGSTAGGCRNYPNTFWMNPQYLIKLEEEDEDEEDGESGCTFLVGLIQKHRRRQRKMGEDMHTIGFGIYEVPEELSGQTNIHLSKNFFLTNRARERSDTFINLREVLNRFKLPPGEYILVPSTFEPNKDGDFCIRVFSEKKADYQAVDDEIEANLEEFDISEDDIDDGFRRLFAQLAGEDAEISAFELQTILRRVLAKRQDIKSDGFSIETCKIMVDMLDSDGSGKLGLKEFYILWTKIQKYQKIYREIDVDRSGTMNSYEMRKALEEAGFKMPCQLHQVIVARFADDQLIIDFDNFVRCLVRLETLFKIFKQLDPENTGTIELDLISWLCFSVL", "T1 sequence (P04632 whole entry partner)": "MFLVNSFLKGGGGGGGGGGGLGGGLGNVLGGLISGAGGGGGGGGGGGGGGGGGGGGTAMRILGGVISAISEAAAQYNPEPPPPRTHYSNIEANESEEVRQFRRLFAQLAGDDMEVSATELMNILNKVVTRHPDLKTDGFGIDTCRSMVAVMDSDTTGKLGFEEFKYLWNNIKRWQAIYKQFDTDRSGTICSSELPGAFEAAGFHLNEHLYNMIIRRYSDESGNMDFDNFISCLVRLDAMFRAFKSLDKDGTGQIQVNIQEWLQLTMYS", "experiment": "ionomycin activated m-calpain activity in Caco 2A cells", "assay_type": "cell-based", "conditions": "0, 5, 10, 20, and 120 μM, FIG. 3", "procedure": "(The Caco 2a calls were treated and analyzed as in Example 4)."}, "HUVEC": {"tested_on": "HUVEC", "experiment": "HUVEC tubule formation assay", "assay_type": "cell-based", "conditions": "Homo sapiens, 72 h, fibrin gel, VEGF and bFGF, counted at three days, read-out: IC50, formation of new endothelial cell tubules", "procedure": "Endothelial cell tubule formation in a fibrin clot is an analog of angiogenesis and was used to assay angiogenesis inhibitors (Brown et al., Lab. Investig. 75:539, 1996). HUVEC were coated on Cytodex™ microcarrier beads (Pharmacia) at a density of 30 HUVEC per bead, in a siliconized dish containing HUVEC complete medium, for 24 hours. […] Tubules were counted at three days."}, "[4]": {"tested_on": "MDA-MB-435 human breast cancer xenografts", "experiment": "nude mouse mammary fat pad xenograft model", "assay_type": "in vivo, nude mice", "conditions": "19 days", "procedure": "An inoculum of 5×10^5 MDA-MB-435 cells in 100 μl was injected into the mammary fat pad of each female animal. […] The tumor growth rate was reduced by 16% in the mice treated at 20 mg/kg, compared to the mice treated with vehicle."}, "breast cancer lines": {"tested_on": "breast cancer lines", "experiment": "propidium iodide flow cytometry", "assay_type": "cell-based, human", "conditions": "at the IC50 concentration of ritonavir"}}, "note": "Where two headings read alike, the source gives them in different places.", "data": [{"smiles": "CC(C)c1nc(CN(C)C(=O)N[C@H](C(=O)N[C@@H](Cc2ccccc2)C[C@H](O)[C@H](Cc2ccccc2)NC(=O)OCc2cncs2)C(C)C)cs1", "note": "[Ritonavir, ritonavir]", "values": [{"measurement": "IC80", "setting": "A549; A549, MTT assay, single agent", "result": 45, "unit": "µM"}, {"measurement": "IC50", "setting": "A549; MTT assay", "result": 35, "unit": "µM"}, {"measurement": "IC50", "setting": "H460; NCI-H460", "result": 47.5, "unit": "µM"}, {"measurement": "IC80", "setting": "H460; NCI-H460, single agent", "result": 100, "unit": "µM"}, {"measurement": "IC50", "setting": "MCF7", "result": 25, "unit": "µM"}, {"measurement": "IC50", "setting": "MDA-231; MDA-MB-231, read-out: Ritonavir IC50, MDA-231", "result": 50, "unit": "µM"}, {"measurement": "IC50", "setting": "MDA-231; MDA-MB-231, MDA-231, 48 hours, MTT, single agent, read-out: IC50", "result": 60, "unit": "µM"}, {"measurement": "IC50", "setting": "MDA-436", "result": 40, "unit": "µM"}, {"measurement": "IC50", "setting": "SKBR-3", "result": 60, "unit": "µM"}, {"measurement": "IC50", "setting": "T47D", "result": 12, "unit": "µM"}, {"measurement": "IC50", "setting": "[1]", "result": 42, "unit": "µM"}, {"measurement": "IC50", "setting": "[2]", "result": 20, "unit": "µM"}, {"measurement": "IC50", "setting": "[3]", "result": 15, "unit": "µM"}, {"measurement": "inomycin activated m-calpain", "setting": "m-calpain", "result": "dose dependent decrease"}, {"measurement": "IC50", "setting": "HUVEC", "result": 16, "unit": "µM"}, {"measurement": "tumor growth rate reduced, compared to vehicle", "setting": "[4]; 10 mg/kg daily gavage, one outlier tumor removed", "result": 49, "unit": "%"}, {"measurement": "tumor growth rate reduced, compared to vehicle", "setting": "[4]; 20 mg/kg daily gavage, all tumors", "result": 16, "unit": "%"}, {"measurement": "tumor growth rate reduced, compared to vehicle", "setting": "[4]; 20 mg/kg daily gavage, outlier tumor removed", "result": 55, "unit": "%"}, {"measurement": "cell cycle", "setting": "breast cancer lines", "result": "induces cell cycle arrest"}]}]}
